Active and inactive are the calls of the source.
Legend:
P388 = assay: cells; type: functional; details: Mus musculus
P388/ADR = assay: cells; type: functional; details: Mus musculus
SN12K1 = assay: cells; type: functional; details: Homo sapiens
[1] = Luminescence-based cell-based high throughput dose response assay to identify activators of the DAF-12 from the parasite S. stercoralis (ssDAF-12).; type: functional
[2] = target: T1, Oxysterols receptor LXR-beta (Homo sapiens, UniProt P55055); assay: LXR agonists, Gal4 luciferase reporter, dose response, counter-screen for ssDAF-12 agonist project, cell-based, luminescence, HEK293, S. stercoralis campaign (AID 720737); type: functional; details: read-out: IC50 (the source's name)
T1 sequence (P55055 whole entry): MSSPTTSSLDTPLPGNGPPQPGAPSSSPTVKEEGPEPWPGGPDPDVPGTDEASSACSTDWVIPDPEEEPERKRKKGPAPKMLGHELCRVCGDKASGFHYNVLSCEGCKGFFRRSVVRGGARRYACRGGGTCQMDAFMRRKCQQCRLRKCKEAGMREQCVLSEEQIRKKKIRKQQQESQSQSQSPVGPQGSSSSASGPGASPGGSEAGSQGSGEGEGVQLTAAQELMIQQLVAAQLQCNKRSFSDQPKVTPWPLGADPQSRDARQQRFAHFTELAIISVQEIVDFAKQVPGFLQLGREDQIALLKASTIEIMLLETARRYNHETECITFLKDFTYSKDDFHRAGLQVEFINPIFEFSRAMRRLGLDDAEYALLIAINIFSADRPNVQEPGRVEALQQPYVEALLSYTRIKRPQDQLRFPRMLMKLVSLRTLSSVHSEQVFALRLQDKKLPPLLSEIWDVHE

[3] = HepG2 cell cytotoxicity, dose response, cytotoxicity control, plate reader, cherry-pick, antagonist series (AID 743416); type: functional, cell-based
[4] = A549 cell cytotoxicity, dose response, cytotoxicity control, plate reader, cherry-pick, antagonist series (AID 743412); type: functional, cell-based
[5] = LGR2 antagonists, dose response, cell-based, HEK293, CRE-luciferase reporter, cherry pick, set 2 (AID 743343); type: functional;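 also: transfected cells were stimulated with diluted bursicon conditioned medium after compound addition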
[6] = HEK293 cell cytotoxicity, dose response, cytotoxicity control, plate reader, cherry-picked samples (AID 743446); type: functional, cell-based
[7] = MC4R antagonists, dose response, counter-screen for LGR2 antagonist project, cell-based, plate reader, cherry pick (AID 743444); type: functional;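 also: transfected HEK 293 cells stimulated with alpha-MSH peptide; potency of inhibitors of the alpha-MSH evoked signal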
[8] = target: T2, Ubiquitin-conjugating enzyme E2 N (Homo sapiens, UniProt P61088); type: functional;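 also: Dose-response confirmation in a TR-FRET assay detecting UBC13-driven polyubiquitin chain formation, inhibition measured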
T2 sequence (P61088 whole entry): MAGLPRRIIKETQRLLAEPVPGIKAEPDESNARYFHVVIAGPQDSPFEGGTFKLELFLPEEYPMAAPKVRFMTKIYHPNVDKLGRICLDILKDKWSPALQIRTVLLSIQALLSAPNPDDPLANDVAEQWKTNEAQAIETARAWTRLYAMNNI

[9] = microbe, parasite or virus in culture; type: functional; details: Mycobacterium tuberculosis
[10] = Luminescence Cell-Based Dose Response HTS to Identify Activators of Luciferase Translation or Activity in H4 […] Cells. [Related pubchem assays: 1829 (Project Summary), 1814 (Primary HTS)]; type: functional
[11] = cytotoxicity toward NIH3T3 fibroblasts, dose response, counter-screen, cell-based, ATP luminescence, mouse fibroblasts (AID 2010); type: functional;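 also: cells exposed to compound for about 90 hours before reading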
[12] = inhibitors of intracellular T. cruzi replication, confirmation, NIH3T3 host cells, beta-gal luminescence (AID 2044); type: functional, cell-based;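 also: intracellular parasites grown in NIH/3T3 mouse fibroblasts as host cells; luminescent beta-galactosidase reporter signal from transgenic T. cruzi replicating inside host cells; inhibitors lower the luminescence signal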
H4 = assay: Luminescence Cell-Based Dose Response HTS to Identify Activators of 5'UTR Stem-Loop Driven Prion Protein mRNA Translation in H4 Neuroglioblastoma Cells. [Related pubchem assays: 1829 (Project Summary), 1814 (Primary HTS)]; type: functional; details: Homo sapiens
[13] = target: T3, Sentrin-specific protease 8 (Homo sapiens, UniProt Q96LD8); type: functional;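 also: luminescence read-out of SENP8 inhibition, dose-response confirmation following an ultra-high-throughput screen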
T3 sequence (Q96LD8 whole entry): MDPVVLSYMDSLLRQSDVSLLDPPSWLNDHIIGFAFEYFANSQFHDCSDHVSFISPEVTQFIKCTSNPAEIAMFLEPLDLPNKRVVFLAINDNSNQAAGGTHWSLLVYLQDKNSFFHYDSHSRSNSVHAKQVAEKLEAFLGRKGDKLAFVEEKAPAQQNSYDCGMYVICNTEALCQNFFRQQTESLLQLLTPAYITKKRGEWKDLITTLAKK

[14] = target: T4, Sentrin-specific protease 6 (Homo sapiens, UniProt Q9GZR1); type: functional;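 also: Luminescence-based dose-response confirmatory assay of SENP6 inhibition, following up an ultra-high-throughput screen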
T4 sequence (Q9GZR1 whole entry): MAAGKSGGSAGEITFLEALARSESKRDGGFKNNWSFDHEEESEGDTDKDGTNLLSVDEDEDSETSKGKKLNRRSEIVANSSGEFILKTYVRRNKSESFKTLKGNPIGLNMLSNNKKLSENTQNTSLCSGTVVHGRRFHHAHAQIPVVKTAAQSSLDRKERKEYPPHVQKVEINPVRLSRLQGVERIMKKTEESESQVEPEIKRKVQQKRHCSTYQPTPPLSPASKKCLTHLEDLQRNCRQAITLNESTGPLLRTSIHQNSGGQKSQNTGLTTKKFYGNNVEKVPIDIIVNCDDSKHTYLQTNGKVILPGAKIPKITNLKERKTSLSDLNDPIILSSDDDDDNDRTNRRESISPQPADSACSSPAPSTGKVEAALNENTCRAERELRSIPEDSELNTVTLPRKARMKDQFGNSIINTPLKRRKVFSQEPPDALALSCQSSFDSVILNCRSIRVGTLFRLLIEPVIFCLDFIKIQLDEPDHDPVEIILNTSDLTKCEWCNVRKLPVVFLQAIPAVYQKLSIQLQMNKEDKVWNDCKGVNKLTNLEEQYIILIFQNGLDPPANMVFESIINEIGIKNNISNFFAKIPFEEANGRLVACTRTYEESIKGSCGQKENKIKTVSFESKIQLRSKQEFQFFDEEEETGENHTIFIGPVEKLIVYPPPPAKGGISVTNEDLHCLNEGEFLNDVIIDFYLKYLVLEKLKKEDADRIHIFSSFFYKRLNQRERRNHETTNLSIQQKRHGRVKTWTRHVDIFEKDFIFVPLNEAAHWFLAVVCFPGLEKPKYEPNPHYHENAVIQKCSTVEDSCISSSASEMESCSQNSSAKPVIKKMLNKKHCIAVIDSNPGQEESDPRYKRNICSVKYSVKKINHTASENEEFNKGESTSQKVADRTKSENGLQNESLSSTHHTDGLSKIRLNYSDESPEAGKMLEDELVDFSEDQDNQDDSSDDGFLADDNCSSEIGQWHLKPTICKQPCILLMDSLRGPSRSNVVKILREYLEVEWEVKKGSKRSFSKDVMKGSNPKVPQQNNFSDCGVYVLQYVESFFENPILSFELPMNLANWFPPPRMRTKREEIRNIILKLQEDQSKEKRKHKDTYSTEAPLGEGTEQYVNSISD

[15] = target: T5, Sentrin-specific protease 7 (Homo sapiens, UniProt Q9BQF6); type: functional;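 also: Luminescence-based dose-response confirmation of ultra-high-throughput screening hits, measuring inhibition of SENP7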
T5 sequence (Q9BQF6 whole entry): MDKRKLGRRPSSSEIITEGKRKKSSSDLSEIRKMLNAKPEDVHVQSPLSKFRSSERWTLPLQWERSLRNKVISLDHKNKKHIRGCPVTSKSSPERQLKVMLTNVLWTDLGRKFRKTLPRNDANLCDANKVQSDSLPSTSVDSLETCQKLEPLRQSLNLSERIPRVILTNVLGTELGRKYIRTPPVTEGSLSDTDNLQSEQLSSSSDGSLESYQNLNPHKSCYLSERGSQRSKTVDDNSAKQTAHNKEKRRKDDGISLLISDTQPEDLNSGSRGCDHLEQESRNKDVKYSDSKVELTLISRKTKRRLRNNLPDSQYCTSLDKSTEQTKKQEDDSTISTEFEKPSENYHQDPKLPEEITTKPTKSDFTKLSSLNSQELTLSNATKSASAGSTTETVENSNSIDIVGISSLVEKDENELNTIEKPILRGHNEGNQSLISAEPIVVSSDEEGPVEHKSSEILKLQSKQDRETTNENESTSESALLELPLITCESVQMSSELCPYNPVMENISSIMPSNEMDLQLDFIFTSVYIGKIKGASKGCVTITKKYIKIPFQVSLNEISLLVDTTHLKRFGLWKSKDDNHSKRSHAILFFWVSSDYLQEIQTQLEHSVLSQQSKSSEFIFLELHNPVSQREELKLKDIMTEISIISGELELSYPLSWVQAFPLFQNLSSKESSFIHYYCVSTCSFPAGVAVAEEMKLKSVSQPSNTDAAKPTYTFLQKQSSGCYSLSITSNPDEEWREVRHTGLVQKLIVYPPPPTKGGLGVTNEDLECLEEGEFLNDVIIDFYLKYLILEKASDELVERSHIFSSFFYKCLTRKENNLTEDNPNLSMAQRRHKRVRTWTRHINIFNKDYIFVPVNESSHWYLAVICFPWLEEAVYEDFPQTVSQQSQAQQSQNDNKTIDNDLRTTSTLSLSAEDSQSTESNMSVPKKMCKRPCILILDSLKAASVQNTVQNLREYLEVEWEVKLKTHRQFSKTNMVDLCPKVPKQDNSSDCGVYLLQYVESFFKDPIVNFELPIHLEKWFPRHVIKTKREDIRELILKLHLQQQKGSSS

Caspase-3 = target: T6, Caspase-3 (Homo sapiens, UniProt P42574); type: functional;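 also: Dose-response selectivity test against caspase-3 for candidate inhibitors of sentrin-specific proteases (SENPs)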
T6 sequence (P42574 whole entry): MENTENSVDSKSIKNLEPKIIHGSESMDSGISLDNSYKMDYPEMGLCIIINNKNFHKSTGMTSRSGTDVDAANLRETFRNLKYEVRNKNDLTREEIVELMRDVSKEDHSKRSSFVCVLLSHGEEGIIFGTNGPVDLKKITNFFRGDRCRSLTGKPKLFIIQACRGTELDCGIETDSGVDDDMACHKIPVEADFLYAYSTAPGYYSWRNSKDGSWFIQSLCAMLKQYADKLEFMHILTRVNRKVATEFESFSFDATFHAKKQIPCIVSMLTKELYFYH

## C=C1C(=O)O[C@H]2C1[C@H](OC(=O)/C(C)=C\COC(C)=O)C[C@]1(CO1)[C@@H]1[C@H](O)[C@H]3O[C@@]3(C)[C@@H]12 (stereo partly drawn)
P388
  GI50: 3.4 µM (inactive)
P388/ADR
  GI50: 8.13 µM (inactive)
SN12K1
  GI50: 24.8 µM (inactive)

## CCc1ccc2cc3c(cc2n1)C(=O)c1ccccc1-3
[1]
  IC50: > 67.5 µM (inactive)
[2]
  EC50: > 67.5 µM (inactive)

## CNC(=O)OCc1nc([S+](C)[O-])n(C)c1COC(=O)NC (stereo not drawn)
P388
  GI50: > 100 µM (inactive)
P388/ADR
  GI50: > 100 µM (inactive)
SN12K1
  GI50: > 100 µM (inactive)

## Ic1ccccc1CN[C@@H]1C2CCN(CC2)[C@@H]1C(c1ccccc1)c1ccccc1
[3]
  AC50: 8.05 µM (active)
[4]
  AC50: 7.99 µM (active)
[5]
  AC50: 18.1 µM (active)
[6]
  AC50: 13.9 µM (active)
[7]
  AC50: 21.6 µM (active)
[8]
  IC50: > 20 µM (inactive)
[9]
  CC50: 12.6 µM (active)

## C=C1[C@@H](C)[C@H]2[C@H](Cc3ccccc3)NC(=O)[C@]23OC(=O)/C=C/[C@H](O)CCC[C@@H](C)C/C=C/[C@H]3[C@@H]1O
P388
  GI50: 12.4 µM (inactive)
P388/ADR
  GI50: 15.3 µM (inactive)
SN12K1
  GI50: 0.31 µM (active)

## CN1c2ccsc2/C(=N/Nc2ccc(F)cc2)CS1(=O)=O
[10]
  EC50: 54.8 µM (active)
[11]
  EC50: > 60 µM (not active)
[12]
  EC50: 3.22 µM (active)
[1]
  IC50: > 67.5 µM (inactive)
[2]
  EC50: > 67.5 µM (inactive)
H4
  EC50: 49.1 µM (active)

## COc1cccc(-c2nnc(-c3ccccc3[N+](=O)[O-])o2)c1
[13]
  IC50: > 100 µM (inactive)
[14]
  IC50: > 100 µM (inactive)
[15]
  IC50: 10.4 µM (active)
Caspase-3
  IC50: 19.1 µM (active)

## C=C1C(=O)OC2/C=C(\C)CC(O)/C=C(/CO)CC(OC(=O)/C(C)=C/C)C12 (stereo not drawn)
P388
  GI50: 11.1 µM (inactive)
P388/ADR
  GI50: 16.7 µM (inactive)
SN12K1
  GI50: 24.8 µM (inactive)

## N#Cc1cc2ccccc2nc1SCc1ccccn1
[1]
  IC50: > 67.5 µM (inactive)
[2]
  EC50: > 67.5 µM (inactive)
